Consider 16 molecules from ChEMBL document CHEMBL3991601, “The target landscape of clinical kinase drugs” (Science, 2017).

Molecules are shown by their SMILES. Calls of active or inactive are those of the source. Rule as the data show it, for most assays here: actives have a measured Kd and inactives only a lower limit.

As usually defined, the Kd is the free concentration of one partner at which half of the binding sites on the other are occupied at equilibrium, for simple one-to-one binding.

Test [1] concerns the target BMP-2-inducible protein kinase (Homo sapiens, UniProt Q9NSY1).
The target of test [2] is 26S proteasome regulatory subunit 6B (Homo sapiens, UniProt P43686).
26S proteasome regulatory subunit 6B, sequence (P43686 whole entry): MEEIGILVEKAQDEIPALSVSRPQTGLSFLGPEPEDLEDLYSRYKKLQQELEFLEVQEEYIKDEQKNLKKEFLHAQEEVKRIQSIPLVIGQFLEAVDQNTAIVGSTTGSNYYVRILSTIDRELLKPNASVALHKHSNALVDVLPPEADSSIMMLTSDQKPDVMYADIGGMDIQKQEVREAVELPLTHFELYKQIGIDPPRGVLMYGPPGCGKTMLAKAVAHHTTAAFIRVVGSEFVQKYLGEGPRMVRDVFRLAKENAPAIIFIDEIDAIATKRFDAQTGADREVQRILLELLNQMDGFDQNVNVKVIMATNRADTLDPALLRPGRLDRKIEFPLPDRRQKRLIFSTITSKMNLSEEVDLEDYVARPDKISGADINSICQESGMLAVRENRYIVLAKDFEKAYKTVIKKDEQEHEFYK
For test [3], the target named is Cyclin-dependent kinase 4 (Homo sapiens, UniProt P11802).
Cyclin-dependent kinase 4, sequence (P11802 whole entry): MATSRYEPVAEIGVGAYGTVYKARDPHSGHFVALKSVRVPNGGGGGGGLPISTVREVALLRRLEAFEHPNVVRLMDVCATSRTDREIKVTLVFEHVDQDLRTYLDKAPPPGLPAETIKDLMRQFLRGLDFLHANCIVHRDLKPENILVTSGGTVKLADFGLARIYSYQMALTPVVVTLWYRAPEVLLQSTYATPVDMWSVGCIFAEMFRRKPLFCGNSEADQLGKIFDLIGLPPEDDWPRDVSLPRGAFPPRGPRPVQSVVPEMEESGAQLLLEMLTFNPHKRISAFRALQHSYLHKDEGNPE
Test [4] deals with AP2-associated protein kinase 1 (Homo sapiens, UniProt Q2M2I8).
AP2-associated protein kinase 1, sequence (Q2M2I8 whole entry): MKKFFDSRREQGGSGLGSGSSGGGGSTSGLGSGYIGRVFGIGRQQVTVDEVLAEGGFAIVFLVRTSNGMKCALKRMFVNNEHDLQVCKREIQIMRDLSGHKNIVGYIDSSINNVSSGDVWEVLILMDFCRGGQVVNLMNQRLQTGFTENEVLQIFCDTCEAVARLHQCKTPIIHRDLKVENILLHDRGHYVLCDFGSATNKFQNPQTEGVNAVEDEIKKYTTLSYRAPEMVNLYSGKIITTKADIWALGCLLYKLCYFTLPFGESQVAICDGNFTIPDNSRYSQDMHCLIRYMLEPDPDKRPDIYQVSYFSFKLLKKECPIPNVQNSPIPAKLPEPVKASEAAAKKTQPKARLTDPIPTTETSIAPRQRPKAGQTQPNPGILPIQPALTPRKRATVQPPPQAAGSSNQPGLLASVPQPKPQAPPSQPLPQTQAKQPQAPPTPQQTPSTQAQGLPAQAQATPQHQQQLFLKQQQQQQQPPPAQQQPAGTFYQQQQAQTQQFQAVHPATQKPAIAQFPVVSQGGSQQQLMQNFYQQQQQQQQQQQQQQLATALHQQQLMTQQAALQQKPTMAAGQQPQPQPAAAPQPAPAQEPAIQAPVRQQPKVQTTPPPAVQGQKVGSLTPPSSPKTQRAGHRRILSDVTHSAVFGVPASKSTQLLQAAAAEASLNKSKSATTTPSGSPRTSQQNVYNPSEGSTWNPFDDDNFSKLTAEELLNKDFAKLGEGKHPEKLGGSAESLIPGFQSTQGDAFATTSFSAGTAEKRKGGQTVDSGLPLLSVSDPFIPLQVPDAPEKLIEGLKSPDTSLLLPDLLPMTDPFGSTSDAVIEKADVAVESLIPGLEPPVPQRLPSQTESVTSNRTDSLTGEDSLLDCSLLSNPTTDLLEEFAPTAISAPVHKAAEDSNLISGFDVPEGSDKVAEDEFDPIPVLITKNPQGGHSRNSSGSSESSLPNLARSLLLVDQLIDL
The target in test [5] is T1, Structural maintenance of chromosomes protein 1A (Homo sapiens, UniProt Q14683).
T1 sequence (Q14683 whole entry): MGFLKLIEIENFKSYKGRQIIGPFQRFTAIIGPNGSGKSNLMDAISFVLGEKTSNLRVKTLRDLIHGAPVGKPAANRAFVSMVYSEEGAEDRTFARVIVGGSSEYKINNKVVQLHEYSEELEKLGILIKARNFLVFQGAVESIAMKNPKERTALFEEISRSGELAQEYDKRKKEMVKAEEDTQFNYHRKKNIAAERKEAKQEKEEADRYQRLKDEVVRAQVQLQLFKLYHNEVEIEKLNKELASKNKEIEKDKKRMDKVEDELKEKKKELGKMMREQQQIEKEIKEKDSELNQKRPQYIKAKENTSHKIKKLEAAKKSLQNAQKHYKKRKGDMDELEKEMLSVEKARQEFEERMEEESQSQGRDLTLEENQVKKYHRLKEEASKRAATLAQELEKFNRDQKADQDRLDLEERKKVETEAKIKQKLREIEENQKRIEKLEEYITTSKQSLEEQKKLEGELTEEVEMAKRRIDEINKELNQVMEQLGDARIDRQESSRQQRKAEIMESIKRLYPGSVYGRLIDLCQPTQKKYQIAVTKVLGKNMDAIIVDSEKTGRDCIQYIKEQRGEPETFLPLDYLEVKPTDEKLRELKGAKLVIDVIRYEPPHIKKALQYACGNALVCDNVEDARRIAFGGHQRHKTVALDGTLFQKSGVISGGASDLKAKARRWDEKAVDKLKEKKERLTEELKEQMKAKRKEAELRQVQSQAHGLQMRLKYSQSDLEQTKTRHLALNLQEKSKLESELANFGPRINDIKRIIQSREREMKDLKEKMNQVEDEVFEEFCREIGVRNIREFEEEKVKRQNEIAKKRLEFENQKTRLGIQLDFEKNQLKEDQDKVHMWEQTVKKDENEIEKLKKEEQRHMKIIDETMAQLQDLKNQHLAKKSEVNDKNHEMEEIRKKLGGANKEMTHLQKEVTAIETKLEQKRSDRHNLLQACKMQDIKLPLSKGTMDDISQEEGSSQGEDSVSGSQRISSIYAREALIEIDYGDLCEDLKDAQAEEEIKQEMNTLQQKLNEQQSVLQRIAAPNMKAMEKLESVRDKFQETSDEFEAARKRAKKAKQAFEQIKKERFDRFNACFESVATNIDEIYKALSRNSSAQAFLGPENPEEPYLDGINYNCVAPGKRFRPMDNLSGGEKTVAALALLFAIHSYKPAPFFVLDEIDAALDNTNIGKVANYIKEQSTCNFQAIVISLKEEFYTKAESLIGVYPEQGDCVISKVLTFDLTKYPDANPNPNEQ

For another test, the target named is Aurora kinase B (Homo sapiens, UniProt Q96GD4).
Aurora kinase B, sequence (Q96GD4 whole entry): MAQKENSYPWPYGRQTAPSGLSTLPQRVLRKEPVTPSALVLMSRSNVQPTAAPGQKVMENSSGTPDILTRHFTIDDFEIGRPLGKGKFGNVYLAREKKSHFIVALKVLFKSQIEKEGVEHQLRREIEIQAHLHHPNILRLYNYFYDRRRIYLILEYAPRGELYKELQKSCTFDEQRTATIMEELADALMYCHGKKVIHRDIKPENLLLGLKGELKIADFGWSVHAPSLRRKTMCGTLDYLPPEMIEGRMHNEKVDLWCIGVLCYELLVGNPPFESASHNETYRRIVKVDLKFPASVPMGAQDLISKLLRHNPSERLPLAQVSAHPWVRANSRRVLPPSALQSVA
A further test addresses T2, Ephrin type-B receptor 4 (Homo sapiens, UniProt P54760).
T2 sequence (P54760 whole entry): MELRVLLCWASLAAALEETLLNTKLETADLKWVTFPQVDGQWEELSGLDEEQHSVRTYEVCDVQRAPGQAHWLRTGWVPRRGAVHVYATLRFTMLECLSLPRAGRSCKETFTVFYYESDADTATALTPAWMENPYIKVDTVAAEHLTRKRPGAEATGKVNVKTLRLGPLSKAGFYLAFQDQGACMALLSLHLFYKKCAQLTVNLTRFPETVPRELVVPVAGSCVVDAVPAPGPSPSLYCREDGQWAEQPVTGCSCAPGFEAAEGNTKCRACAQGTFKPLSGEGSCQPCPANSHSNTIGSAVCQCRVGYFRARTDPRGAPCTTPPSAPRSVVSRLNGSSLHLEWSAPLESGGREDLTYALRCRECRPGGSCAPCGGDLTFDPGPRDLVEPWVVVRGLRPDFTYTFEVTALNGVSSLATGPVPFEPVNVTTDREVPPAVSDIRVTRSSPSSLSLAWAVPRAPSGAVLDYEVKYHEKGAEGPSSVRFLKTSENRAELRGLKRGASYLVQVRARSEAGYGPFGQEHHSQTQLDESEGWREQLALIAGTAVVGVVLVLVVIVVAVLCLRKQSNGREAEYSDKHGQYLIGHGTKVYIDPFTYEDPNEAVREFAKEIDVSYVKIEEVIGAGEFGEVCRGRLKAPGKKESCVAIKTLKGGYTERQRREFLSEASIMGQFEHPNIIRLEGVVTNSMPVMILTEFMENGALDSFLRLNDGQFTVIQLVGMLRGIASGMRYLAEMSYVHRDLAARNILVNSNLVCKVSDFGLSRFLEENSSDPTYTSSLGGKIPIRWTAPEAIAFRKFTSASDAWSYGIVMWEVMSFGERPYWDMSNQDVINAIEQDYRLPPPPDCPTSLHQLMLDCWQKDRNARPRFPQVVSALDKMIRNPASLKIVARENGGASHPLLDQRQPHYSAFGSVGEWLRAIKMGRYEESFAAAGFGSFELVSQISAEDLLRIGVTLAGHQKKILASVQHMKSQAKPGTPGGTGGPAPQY

For test [6], the target named is Macrophage-stimulating protein receptor (Homo sapiens, UniProt Q04912).
Macrophage-stimulating protein receptor, sequence (Q04912 25-304 limits assumed): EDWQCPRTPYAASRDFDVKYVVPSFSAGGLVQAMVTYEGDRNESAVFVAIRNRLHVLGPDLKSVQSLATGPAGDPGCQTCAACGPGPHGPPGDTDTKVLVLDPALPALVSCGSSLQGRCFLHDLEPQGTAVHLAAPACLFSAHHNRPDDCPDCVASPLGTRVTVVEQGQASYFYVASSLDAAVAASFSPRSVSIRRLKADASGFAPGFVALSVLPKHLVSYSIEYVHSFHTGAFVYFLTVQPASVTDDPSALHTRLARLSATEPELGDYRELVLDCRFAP
Macrophage-stimulating protein receptor, sequence (Q04912 310-1400 limits assumed): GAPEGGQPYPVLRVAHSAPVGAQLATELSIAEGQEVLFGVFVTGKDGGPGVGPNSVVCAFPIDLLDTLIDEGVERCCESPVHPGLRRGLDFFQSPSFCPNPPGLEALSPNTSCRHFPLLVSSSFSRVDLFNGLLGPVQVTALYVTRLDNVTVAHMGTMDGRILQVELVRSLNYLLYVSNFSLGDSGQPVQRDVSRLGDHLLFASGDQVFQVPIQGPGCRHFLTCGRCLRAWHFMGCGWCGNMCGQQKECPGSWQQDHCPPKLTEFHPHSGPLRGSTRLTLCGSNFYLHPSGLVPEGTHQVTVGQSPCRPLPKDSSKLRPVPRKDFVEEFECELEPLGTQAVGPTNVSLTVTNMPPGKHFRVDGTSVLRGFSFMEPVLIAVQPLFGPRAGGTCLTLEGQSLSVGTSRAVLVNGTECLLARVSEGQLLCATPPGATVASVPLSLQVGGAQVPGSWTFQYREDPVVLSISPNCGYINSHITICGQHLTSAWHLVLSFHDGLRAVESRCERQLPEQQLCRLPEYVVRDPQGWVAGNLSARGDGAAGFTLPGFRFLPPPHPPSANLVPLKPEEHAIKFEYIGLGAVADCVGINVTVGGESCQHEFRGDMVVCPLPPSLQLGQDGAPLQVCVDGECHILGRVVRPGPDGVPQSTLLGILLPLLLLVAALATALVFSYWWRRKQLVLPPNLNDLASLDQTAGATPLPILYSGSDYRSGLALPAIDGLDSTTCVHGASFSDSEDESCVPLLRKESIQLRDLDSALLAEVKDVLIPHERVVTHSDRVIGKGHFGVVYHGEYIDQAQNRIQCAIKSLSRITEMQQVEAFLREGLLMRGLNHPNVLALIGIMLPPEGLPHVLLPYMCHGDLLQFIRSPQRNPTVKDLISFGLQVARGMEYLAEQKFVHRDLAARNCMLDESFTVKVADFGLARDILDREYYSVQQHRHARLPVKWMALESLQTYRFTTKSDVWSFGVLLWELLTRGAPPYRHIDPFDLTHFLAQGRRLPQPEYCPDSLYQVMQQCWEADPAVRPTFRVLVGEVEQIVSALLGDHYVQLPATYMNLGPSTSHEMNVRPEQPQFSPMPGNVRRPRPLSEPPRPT
Test [7] addresses T3, Serine/threonine-protein kinase Chk1 (Homo sapiens, UniProt O14757).
T3 sequence (O14757 whole entry): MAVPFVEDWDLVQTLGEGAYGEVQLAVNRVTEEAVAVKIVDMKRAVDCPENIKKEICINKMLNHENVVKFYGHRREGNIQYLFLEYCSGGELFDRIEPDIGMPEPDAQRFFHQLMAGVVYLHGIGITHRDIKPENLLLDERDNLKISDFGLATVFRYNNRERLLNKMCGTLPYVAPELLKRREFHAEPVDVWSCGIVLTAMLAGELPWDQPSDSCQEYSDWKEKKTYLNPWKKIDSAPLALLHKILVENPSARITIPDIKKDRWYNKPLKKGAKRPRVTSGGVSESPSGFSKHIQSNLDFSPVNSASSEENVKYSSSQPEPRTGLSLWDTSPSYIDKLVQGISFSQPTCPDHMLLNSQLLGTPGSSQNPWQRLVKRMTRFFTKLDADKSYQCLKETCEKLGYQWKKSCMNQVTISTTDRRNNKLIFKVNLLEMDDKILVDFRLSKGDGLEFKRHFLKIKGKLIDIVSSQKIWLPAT
Also: in the data inactive means no Kd found up to 30 µM.

BMP-2-inducible protein kinase, sequence (Q9NSY1 whole entry): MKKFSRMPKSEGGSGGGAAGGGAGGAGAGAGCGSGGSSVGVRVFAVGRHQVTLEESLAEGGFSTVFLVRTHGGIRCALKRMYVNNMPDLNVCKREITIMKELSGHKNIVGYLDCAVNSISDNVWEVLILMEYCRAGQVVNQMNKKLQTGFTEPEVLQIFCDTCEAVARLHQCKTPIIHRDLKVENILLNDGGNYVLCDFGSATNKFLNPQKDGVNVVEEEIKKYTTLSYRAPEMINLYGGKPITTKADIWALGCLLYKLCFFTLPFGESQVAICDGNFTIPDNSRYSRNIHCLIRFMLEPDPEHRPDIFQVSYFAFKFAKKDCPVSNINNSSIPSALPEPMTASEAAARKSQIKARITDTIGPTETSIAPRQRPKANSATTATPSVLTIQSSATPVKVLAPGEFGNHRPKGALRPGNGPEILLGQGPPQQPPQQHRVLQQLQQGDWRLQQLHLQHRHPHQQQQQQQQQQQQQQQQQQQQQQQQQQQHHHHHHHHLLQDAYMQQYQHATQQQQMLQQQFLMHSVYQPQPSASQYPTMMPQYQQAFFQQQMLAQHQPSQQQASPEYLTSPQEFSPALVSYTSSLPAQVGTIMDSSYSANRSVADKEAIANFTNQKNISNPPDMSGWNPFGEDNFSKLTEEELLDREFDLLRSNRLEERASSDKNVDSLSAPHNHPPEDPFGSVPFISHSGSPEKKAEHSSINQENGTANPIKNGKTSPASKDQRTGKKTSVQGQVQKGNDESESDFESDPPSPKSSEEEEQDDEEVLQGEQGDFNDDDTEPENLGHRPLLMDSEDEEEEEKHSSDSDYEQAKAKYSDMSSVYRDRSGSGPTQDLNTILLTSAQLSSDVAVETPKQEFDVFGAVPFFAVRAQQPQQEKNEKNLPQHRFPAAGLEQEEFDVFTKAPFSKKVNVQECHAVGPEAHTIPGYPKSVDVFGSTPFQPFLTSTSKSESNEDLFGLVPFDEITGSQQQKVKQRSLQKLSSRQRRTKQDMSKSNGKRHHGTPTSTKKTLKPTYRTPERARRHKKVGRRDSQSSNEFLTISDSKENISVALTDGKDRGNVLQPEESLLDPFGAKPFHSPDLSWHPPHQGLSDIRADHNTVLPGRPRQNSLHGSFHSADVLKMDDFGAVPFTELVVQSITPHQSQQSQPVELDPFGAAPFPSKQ

Take `COc1cc(Nc2ncc3c(n2)-c2ccc(Cl)cc2C(c2c(F)cccc2OC)=NC3)ccc1C(=O)O` [ALISERTIB]: the Kd in test [1], in [2], in [3], in test [4] and in test [5] was > 30 µM (inactive) in each case.

For the molecule `CNC(=O)c1ccccc1Sc1ccc2c(/C=C/c3ccccn3)n[nH]c2c1` [AXITINIB], the Kd in test [2] and in test [5] was > 30 µM (inactive) in each case.

Turning to `NC(=O)Nc1cc(-c2cccc(F)c2)sc1C(=O)N[C@H]1CCCNC1` [AZD-7762], the Kd in [1] is 0.181 µM (active); on Aurora kinase B, 0.715 µM (active); in test [2] it was > 30 µM (inactive); in test [3], > 30 µM (inactive); in test [4] it was 0.073 µM (active); on Ephrin type-B receptor 4 it was > 30 µM (inactive). In addition, the Kd in test [6] is > 30 µM (inactive).

Take `CC(C)(C)c1nc(-c2cccc(NS(=O)(=O)c3c(F)cccc3F)c2F)c(-c2ccnc(N)n2)s1` [DABRAFENIB]: the Kd (in [1]; at Aurora kinase B; in test [2]; in test [4]; in [5]; in test [6]) was > 30 µM (inactive) in each case.

Regarding `Cn1cc(C2=C(c3cn(C4CCN(Cc5ccccn5)CC4)c4ccccc34)C(=O)NC2=O)c2ccccc21` [ENZASTAURIN], the Kd in [2] and in test [5] was > 30 µM (inactive) throughout.

In the case of `C[C@@H](Oc1cc(-n2cnc3ccc(CN4CCN(C)CC4)cc32)sc1C(N)=O)c1ccccc1C(F)(F)F` [GSK-461364], the Kd in test [2] and in test [5] was > 30 µM (inactive) each time.

As to `O=C(Nc1cc(C(F)(F)F)cc(C(F)(F)F)c1)c1cc(Cl)ccc1O` [IMD-0354], the Kd (in test [1]; at Aurora kinase B; in [2]; in [3]; in [4]; at Ephrin type-B receptor 4) was > 30 µM (inactive) throughout. Further, the Kd in [5] and in test [6] was > 30 µM (inactive) each time.

As to `CNC(=O)c1nn(C)c2c1C(C)(C)Cc1cnc(Nc3ccc(N4CCN(C)CC4)cc3)nc1-2` [MILCICLIB], the Kd in test [1] was > 30 µM (inactive); at Aurora kinase B, 7.54 µM; in [7], > 30 µM (inactive); in test [2], > 30 µM (inactive); in test [4], 7.41 µM (active); at Ephrin type-B receptor 4, 1.07 µM (active). For the same molecule, the Kd in test [5] was > 30 µM (inactive); in test [6], 1.99 µM (active).

As for `FC(F)(F)c1ccc(/C=C/c2nc(COc3ccc(CCCCn4ccnn4)cc3)co2)cc1` [MUBRITINIB], the Kd (in test [1]; at Aurora kinase B; in [7]; in test [2]; in test [4]; on Ephrin type-B receptor 4) was > 30 µM (inactive) throughout. Besides, the Kd in test [5] and in [6] was > 30 µM (inactive) each time.

Turning to `Cc1[nH]c(/C=C2\C(=O)Nc3ccccc32)c(C)c1CCC(=O)O` [ORANTINIB], the Kd in test [1] is 0.303 µM (active); in test [2], > 30 µM (inactive); in test [3] it was > 30 µM (inactive); in [4] it was 1.17 µM (active); at Ephrin type-B receptor 4, > 30 µM (inactive); in test [5], > 30 µM (inactive). In addition, in [6], the Kd is > 30 µM (inactive).

For the molecule `NC(=O)c1c(OCc2c(F)cc(Br)cc2F)nsc1NC(=O)NCCCCN1CCCC1` [OSI-632], the Kd (in test [1]; in test [2]; in test [3]; in test [4]; on Ephrin type-B receptor 4; in test [5]) was > 30 µM (inactive) each time.

As for `CC(=O)NCC(=O)N1[C@@H]2CC[C@H]1c1ccc(Nc3ncc(C(F)(F)F)c(NC4CCC4)n3)cc12` [PF-03814735], the Kd in [1] was 0.015 µM (active); at Aurora kinase B it was 0.02 µM (active); in test [2], > 30 µM (inactive); in test [3] it was > 30 µM (inactive); in test [4] it was 0.009 µM (active); on Ephrin type-B receptor 4, > 30 µM (inactive). For the same molecule, in test [5], the Kd was > 30 µM (inactive).

With `Cc1cnc(NC(=O)Nc2cc(Br)c(C)cc2OC[C@@H]2CNCCO2)cn1` [RABUSERTIB], the Kd (in [1]; on Aurora kinase B; in test [2]; in test [3]; in [4]; at Ephrin type-B receptor 4) was > 30 µM (inactive) each time. Also, the Kd in test [5] and in test [6] was > 30 µM (inactive) in each case.

With `O=C(NOCCO)c1cc(CN2OCCCC2=O)c(F)c(F)c1Nc1ccc(I)cc1F` [RO-4987655], the Kd in test [2] and in [5] was > 30 µM (inactive) in each case.

As for `N#CC[C@H](C1CCCC1)n1cc(-c2ncnc3[nH]ccc23)cn1` [RUXOLITINIB], the Kd in test [2] and in [5] was > 30 µM (inactive) each time.

As to `Cn1cc(-c2cnn3c(N)c(Br)c([C@@H]4CCCNC4)nc23)cn1` [SCH-900776], the Kd in test [1] was 2.68 µM; on Aurora kinase B, > 30 µM (inactive); in [2], 0.005 µM; in test [3] it was > 30 µM (inactive); in test [4], > 30 µM (inactive); on Ephrin type-B receptor 4, > 30 µM (inactive). In addition, the Kd in test [6] was > 30 µM (inactive).
